Results: ChEMBL document CHEMBL5331046, “Disulfiram and dithiocarbamate analogues demonstrate promising antischistosomal effects” (Eur J Med Chem, 2022)
One block for each compound: values may come before it. The source made the active and inactive calls. No cut-off for these calls is given here.

Tests used:
Schistosoma mansoni [1] = experiment: Antischistosomal activity against Schistosoma mansoni couples assessed as worm motility at 100 uM measured after 72 hrs by bright field microscopy; format: functional
Schistosoma mansoni [2] = experiment: Antischistosomal activity against Schistosoma mansoni infected in mouse assessed as mouse mortality; format: functional
Schistosoma mansoni [3] = experiment: Antischistosomal activity against Schistosoma mansoni couples assessed as worm motility at 25 uM treated for 72 hrs and measured at 192 hrs after drug wash-out by bright field microscopy; format: functional
Schistosoma mansoni [4] = experiment: Antischistosomal activity against Schistosoma mansoni couples assessed as worm motility at 25 uM measured after 72 hrs by bright field microscopy; format: functional
Schistosoma mansoni [5] = experiment: Antischistosomal activity against Schistosoma mansoni couples assessed as worm motility at 50 uM measured after 72 hrs by bright field microscopy; format: functional
Schistosoma mansoni [6] = experiment: Antischistosomal activity against Schistosoma mansoni couples assessed as worm motility at 50 uM treated for 72 hrs and measured at 144 hrs after drug wash-out by bright field microscopy; format: functional
Schistosoma mansoni [7] = experiment: Antischistosomal activity against Schistosoma mansoni couples assessed as worm motility at 100 uM treated for 72 hrs and measured at 144 hrs after drug wash-out by bright field microscopy; format: functional
Schistosoma mansoni [8] = experiment: Antischistosomal activity against Schistosoma mansoni couples assessed as worm motility at 50 uM treated for 72 hrs and measured at 192 hrs after drug wash-out by bright field microscopy; format: functional
Schistosoma mansoni [9] = experiment: Antischistosomal activity against Schistosoma mansoni couples assessed as worm motility at 25 uM treated for 72 hrs and measured at 144 hrs after drug wash-out by bright field microscopy; format: functional
Schistosoma mansoni [10] = experiment: Antischistosomal activity against Schistosoma mansoni infected in mouse assessed as decrease in granuloma formation; format: functional; set-up: scale not given: the % may be the effect or the level left
Schistosoma mansoni [11] = experiment: Antischistosomal activity against Schistosoma mansoni couples assessed as worm motility at 100 uM treated for 72 hrs and measured at 192 hrs after drug wash-out by bright field microscopy; format: functional
Schistosoma mansoni [12] = experiment: Antischistosomal activity against Schistosoma mansoni couples assessed as reduction in pairing stability at 25 to 100 uM treated for 72 hrs and measured at 144 to 192 hrs after drug wash-out by bright field microscopy; format: functional, organism-based; details: dose 25-100 µM
Schistosoma mansoni [13] = experiment: Antischistosomal activity against Schistosoma mansoni couples assessed as decrease in parasite motility at 15 uM measured upto 72 hrs by bright field microscopy; format: functional; set-up: scale not given: the % may be the effect or the level left
Schistosoma mansoni [14] = experiment: Antischistosomal activity against Schistosoma mansoni couples assessed as induction of phenotypes at 10 uM measured upto 72 hrs by bright field microscopy; format: functional, organism-based
Schistosoma mansoni [15] = experiment: Antischistosomal activity against Schistosoma mansoni couples assessed as loss of internal structures at 10 uM measured upto 72 hrs by bright field microscopy; format: functional, organism-based
LS174T = experiment: Cytotoxicity against human LS174T cells assessed as reduction in cell viability at 100 uM by WST-1 assay; format: toxicity, cell-based
Schistosoma mansoni [16] = experiment: Antischistosomal activity against Schistosoma mansoni couples assessed as tegument damage at <=10 uM measured upto 72 hrs by bright field microscopy; format: functional, organism-based
Schistosoma mansoni [17] = experiment: Antischistosomal activity against Schistosoma mansoni couples assessed as decrease in pairing stability at 15 uM measured upto 72 hrs by bright field microscopy; format: functional; set-up: scale not given: the % may be the effect or the level left
Schistosoma mansoni [18] = experiment: Antischistosomal activity against Schistosoma mansoni couples assessed as gut dilatations at 10 uM measured upto 72 hrs by bright field microscopy; format: functional, organism-based
Schistosoma mansoni [19] = experiment: Antischistosomal activity against Schistosoma mansoni couples assessed as loss of internal structures at <=10 uM measured upto 72 hrs by bright field microscopy; format: functional, organism-based
Schistosoma mansoni [20] = experiment: Antischistosomal activity against Schistosoma mansoni couples assessed as inhibition of eggs production at 15 uM measured upto 72 hrs by bright field microscopy; format: functional; set-up: scale not given: the % may be the effect or the level left
Schistosoma mansoni [21] = experiment: Antischistosomal activity against Schistosoma mansoni couples assessed as gut dilatations at <=10 uM measured upto 72 hrs by bright field microscopy; format: functional, organism-based
Schistosoma mansoni [22] = experiment: Antischistosomal activity against Schistosoma mansoni couples assessed as decrease in parasite vitality at 15 uM measured upto 72 hrs by bright field microscopy; format: functional; set-up: scale not given: the % may be the effect or the level left
Schistosoma mansoni [23] = experiment: Antischistosomal activity against Schistosoma mansoni couples assessed as decrease in parasite motility at 10 uM measured upto 72 hrs by bright field microscopy; format: functional, organism-based
Schistosoma mansoni [24] = experiment: Antischistosomal activity against Schistosoma mansoni couples assessed as reduction in pairing stability measured up to 72 hrs by bright field microscopy; format: functional, organism-based
HepG2 = experiment: Cytotoxicity against human HepG2 cells assessed as reduction in cell vaibility at 100 uM by WST-1 assay; format: toxicity, cell-based; details: hepg2, 100 µM
Schistosoma mansoni [25] = experiment: Antischistosomal activity against Schistosoma mansoni couples assessed as reduction in parasite motility at <=10 uM measured upto 72 hrs by bright field microscopy; format: functional; set-up: scale not given: the % may be the effect or the level left; details: up to 10 µM
Schistosoma mansoni [26] = experiment: Antischistosomal activity against Schistosoma mansoni couples assessed as reduction in worm motility measured up to 72 hrs by bright field microscopy; format: functional, organism-based
Schistosoma mansoni [27] = experiment: Antischistosomal activity against Schistosoma mansoni couples assessed as tegument damage at 10 uM measured upto 72 hrs by bright field microscopy; format: functional, organism-based

SMILES: CCN(CC)C(=S)SSC(=S)N(CC)CC [DISULFIRAM]
- Activity (Schistosoma mansoni [1]): 56%
- Activity (Schistosoma mansoni [2]): 60%
- Activity (Schistosoma mansoni [3]): 67%
- Activity (Schistosoma mansoni [4]): 69%
- Activity (Schistosoma mansoni [5]): 62%
- Activity (Schistosoma mansoni [6]): 75%
- Activity (Schistosoma mansoni [7]): 71%
- Activity (Schistosoma mansoni [8]): 84%
- Activity (Schistosoma mansoni [9]): 73%
- Activity (Schistosoma mansoni [10]): 80%
- Activity (Schistosoma mansoni [11]): 76%
- Activity (Schistosoma mansoni [12]): inactive

- EC50 (Schistosoma mansoni [24]): 9.2 µM
- EC50 (Schistosoma mansoni [26]): 9.6 µM
SMILES: CS(=O)(=O)N1CCN(C(=S)SCc2ccc([N+](=O)[O-])cc2)CC1
- Activity (Schistosoma mansoni [1]): 31%
- Activity (Schistosoma mansoni [13]): 50%
- Activity (Schistosoma mansoni [14]): Active
- Activity (Schistosoma mansoni [15]): Active
- Activity (LS174T): Non-Toxic
- Activity (Schistosoma mansoni [16]): inactive
- Activity (Schistosoma mansoni [3]): 35%
- Activity (Schistosoma mansoni [17]): 20%
- Activity (Schistosoma mansoni [4]): 35%
- Activity (Schistosoma mansoni [5]): 31%
- Activity (Schistosoma mansoni [6]): 27%
- Activity (Schistosoma mansoni [18]): Active
- Activity (Schistosoma mansoni [7]): 24%
- Activity (Schistosoma mansoni [8]): 28%
- Activity (Schistosoma mansoni [19]): inactive
- Activity (Schistosoma mansoni [20]): 40%
- Activity (Schistosoma mansoni [9]): 36%
- Activity (Schistosoma mansoni [21]): inactive
- Activity (Schistosoma mansoni [11]): 24%
- Activity (Schistosoma mansoni [22]): 90%
- Activity (Schistosoma mansoni [23]): Active
- Activity (HepG2): Non-Toxic
- Activity (Schistosoma mansoni [25]): 50%
- Activity (Schistosoma mansoni [27]): Active
